Test results taken from patent publication US20150126582A1, “Combination Treatment of Multiple Myeloma” (Sevion Therapeutics, Inc., priority 2012, published 2015).

Tests used:
RPMI 8226 myeloma cells = assay: RPMI 8226 multiple myeloma subcutaneous tumors in SCID mice, 6 weeks of dosing; settings: for tumor growth inhibited compared to control nanoparticles: end of 6 weeks of dosing
Experimental: SCID mice are injected subcutaneously with RPMI 8226 cells. […] Groups of six SCID/CB17 mice (3-5 weeks old) are injected with 12 million RPMI 8226 myeloma cells in 200 μL PBS in their right flank and treatment is initiated when the tumours reached a minimum size of 10 mm^3.
Control mice are injected intravenously two times per week with PEI complexes containing pCpG-mcs (empty vector) and control siRNA at a dose of 0.375 mg (nucleic acid)/kg. Mice receiving SNS01-T were injected intra-venously two times per week at 0.375 mg/kg. Mice treated with lenalidomide received 5 doses per week by intra-peritoneal injection of lenalidomide (Celgene) at doses of 15 mg/kg or 50 mg/kg. Mice receiving both SNS01-T and lenalidomide were dosed 2×/week with SNS01-T by intra-venous injection at 0.375 mg/kg and 5× per week with lenalidomide by intra-peritoneal injection at either 15 mg/kg or 50 mg/kg. […] Tumor volume is measured for all the mice in each group at least twice weekly.

[1] = tested on: human myeloma tumors derived from RPMI 8226 cells; assay: Additional study: RPMI 8226 myeloma tumors in mice, 2 cycles of treatment, 102 days; format: in vivo
Experimental: In an additional study, mice implanted with human myeloma tumors derived from RPMI 8226 cells were randomized into 4 groups and treated with control nanoparticles, or, either SNS01-T (0.375 mg/kg; i.v., twice per week), lenalidomide (50 mg/kg; i.p., 5× per week) or both. The mice received 2 cycles of treatment, 6 weeks and 5 weeks respectively, with an 11 day rest period between cycles. Mice, whose tumors were undetectable at the end of cycle 1, received no drug treatment in cycle 2 unless tumor reappeared. The mice were monitored for 2 weeks after the end of the second cycle of treatment. The total length of the study was 102 days.

Structure (SMILES): Nc1cccc2c1CN(C1CCC(=O)NC1=O)C2=O (racemic) [lenalidomide, 3-(4-amino-oxo-1,3-dihydro-isoindol-2-yl)-piperidine-2,6-dione]
- tumor growth inhibited compared to control nanoparticles (RPMI 8226 myeloma cells; lenalidomide 15 mg/kg i.p. 5 doses/week (alone, or with SNS01-T 0.375 mg/kg i.v. 2x/week)): 51%
- tumor growth inhibited compared to control nanoparticles (RPMI 8226 myeloma cells; lenalidomide 50 mg/kg i.p. 5 doses/week (alone, or with SNS01-T 0.375 mg/kg i.v. 2x/week)): 78%
- surviving animals with undetectable tumors (RPMI 8226 myeloma cells; end of 6 weeks, lenalidomide alone, 15 mg/kg or 50 mg/kg i.p. 5x/week): No surviving animals
- median survival (RPMI 8226 myeloma cells; lenalidomide 15 mg/kg i.p. 5x/week): 53 days
- tumor growth inhibited compared to control nanoparticles ([1]; end of the second cycle of dosing, lenalidomide 50 mg/kg i.p. 5x per week (alone, or with SNS01-T 0.375 mg/kg i.v. twice per week)): 34%
- median survival ([1]; lenalidomide 50 mg/kg i.p. 5x per week, study length 102 days): 95 days
